Results from the NIST ThermoML archive (doi:10.1016/j.jct.2015.06.021).
Values joined by “and” are separate entries in the source; they are usually repeats but may differ in a detail not shown here. Identical values can stand only once.

Assays:
[1] = Crystal; for vapor or sublimation pressure: Calculated from knudsen effusion weight loss; for Normal melting temperature: DTA
[2] = Molar enthalpy of transition or fusion; settings: Crystal; DSC

c1ccc2c(c1)ccc1ccccc12 [phenanthrene]
[1]
Settings | vapor or sublimation pressure [kPa]
296.2 K | 1.61e-05
297.2 K | 1.86e-05
298.2 K | 2.1e-05
299.2 K | 2.43e-05
300.2 K | 2.7e-05
301.2 K | 3e-05
302.2 K | 3.43e-05
303.2 K | 3.83e-05
304.2 K | 4.3e-05
305.2 K | 4.88e-05
306.2 K | 5.4e-05
307.2 K | 6.08e-05
308.2 K | 6.73e-05
309.2 K | 7.49e-05
310.2 K | 8.41e-05
311.2 K | 9.35e-05
312.2 K | 0.0001041
313.2 K | 0.0001151

Settings | Molar enthalpy of transition or fusion [kJ/mol] | Normal melting temperature [°C]
[1] | – | 99
[2] | 15.1 | –

c1ccc2cc3ccccc3cc2c1 [anthracene]
[1]
Settings | vapor or sublimation pressure
301.3 K | 1.3e-06 kPa
303.3 K | 1.8e-06 kPa
303.6 K | 1.7e-06 kPa
305.7 K | 2.5e-06 kPa
305.9 K | 2.2e-06 kPa
307.8 K | 3.2e-06 kPa
308.1 K | 3.9e-06 kPa
308.2 K | 3.3e-06 kPa
310 K | 4.3e-06 kPa
310.2 K | 4.2e-06 kPa
310.5 K | 4.5e-06 kPa
313.3 K | 6.5e-06 kPa
314.5 K | 7.3e-06 kPa
314.7 K | 7.4e-06 kPa
314.9 K | 7.6e-06 kPa
317.6 K | 1.05e-05 kPa
318.8 K | 1.1e-05 kPa
319.2 K | 1.28e-05 kPa
322.3 K | 1.81e-05 kPa
323.1 K | 2.05e-05 kPa and 1.74e-05 kPa
323.2 K | 2.12e-05 kPa
323.8 K | 2.09e-05 kPa
326.6 K | 2.96e-05 kPa
328 K | 3.16e-05 kPa
328.6 K | 3.48e-05 kPa
331.5 K | 4.92e-05 kPa
333.1 K | 6.27e-05 kPa
333.3 K | 6.36e-05 kPa
333.7 K | 6.31e-05 kPa
336.3 K | 8.09e-05 kPa
338.2 K | 8.49e-05 kPa
338.8 K | 0.0001028 kPa and 9.99e-05 kPa
343.1 K | 0.000173 kPa and 0.0001738 kPa
343.4 K | 0.0001646 kPa and 0.0001599 kPa
348.1 K | 0.0002492 kPa
348.2 K | 0.0002587 kPa
353.2 K | 0.0004347 kPa
363.2 K | 0.001018 kPa
373.2 K | 0.002158 kPa

Settings | Molar enthalpy of transition or fusion [kJ/mol] | Normal melting temperature [°C]
[1] | – | 217
[2] | 27.4 | –
